Experimental data published in patent publication US12065396B2, “Lipids for use in lipid nanoparticle formulations” (ACUITAS THERAPEUTICS, INC., priority 2017, dated 2024).

Assays:
[1] = Determination of pKa of formulated lipids (TNS fluorescence assay in lipid nanoparticles); format: physicochemical
Source text: As described elsewhere, the pKa of formulated lipids was correlated with the effectiveness of LNPs for delivery of nucleic acids (see Jayaraman et al, Angewandte Chemie, International Edition (2012), 51(34), 8529-8533; Semple et al, Nature Biotechnology 28, 172-176 (2010)). In some embodiments, the preferred range of pKa was ˜5 to ˜7. […] Lipid nanoparticles comprising compound of structure (I)/DSPC/cholesterol/PEG-lipid (50/10/38.5/1.5 or 47.5:10:40.8:1.7 mol %) in PBS at a concentration of 0.4 mM total lipid were prepared using the in-line process as described in Example 1. TNS was prepared as a 100 μM stock solution in distilled water. Vesicles were diluted to 24 μM lipid in 2 mL of buffered solutions containing 10 mM HEPES, 10 mM MES, 10 mM ammonium acetate, and 130 mM NaCl, where the pH ranged from 2.5 to 11. An aliquot of the TNS solution was added to give a final concentration of […] and following vortex mixing fluorescence intensity was measured at room temperature in a SLM Aminco Series 2 Luminescence Spectrophotometer using excitation and emission wavelengths of 321 nm and 445 nm. A sigmoidal best fit analysis was applied to the fluorescence data and the pKa was measured as the pH giving rise to half-maximal fluorescence intensity.

[2] = test system: luciferase expression in the liver; assay: Luciferase mRNA in vivo evaluation using lipid nanoparticle compositions; set-up: species or system mice; conditions: for Liver Luc @ 0.5 mg/kg (ng luc/g liver): 0.5 mg mRNA/kg; for Liver Luc @ 0.5 mg/kg (ng luc/g liver) / Liver Luc (ng luc/g liver), *dosed at 1.0 mg/kg: tail vein injection, liver 4 hours after administration; for Liver Luc (ng luc/g liver), *dosed at 1.0 mg/kg: 1.0 mg mRNA/kg (footnote *); for Relative activity in the luciferase assay relative to MC3: liver luciferase expression 4 hours after tail vein injection, 47.5/10/40.8/1.7 cationic lipid/DSPC/cholesterol/PEG-DMA
Experimental: A lipid of structure (I), DSPC, cholesterol and PEG-lipid were solubilized in ethanol at a molar ratio of 50:10:38.5:1.5 or 47.5:10:40.8:1.7. Lipid nanoparticles (LNP) were prepared at a total lipid to mRNA weight ratio of approximately 10:1 to 30:1. Briefly, the mRNA was diluted to 0.2 mg/mL in 10 to 50 mM citrate buffer, pH 4. Syringe pumps were used to mix the ethanolic lipid solution with the mRNA aqueous solution at a ratio of about 1:5 to 1:3 (vol/vol) with total flow rates above 15 mL/min. The ethanol was then removed and the external buffer replaced with PBS by dialysis. Finally, the lipid nanoparticles were filtered through a 0.2 μm pore sterile filter.
Studies were performed in 6-8 week old female C57BL/6 mice (Charles River) 8-10 week old CD-1 (Harlan) mice (Charles River) according to guidelines established by an institutional animal were committee (ACC) and the Canadian Council on Animal Cwere (CCAC). Varying doses of mRNA-lipid nanoparticle were systemically administered by tail vein injection and animals euthanized at a specific time point (e.g., 4 hours) post-administration. Liver and spleen were collected in pre-weighed tubes, weights determined, immediately snap frozen in liquid nitrogen and stored at −80° C. until processing for analysis.
For liver, approximately 50 mg was dissected for analyses in a 2 mL FastPrep tubes (MP Biomedicals, Solon Ohio). ¼″ ceramic sphere (MP Biomedicals) was added to each tube and 500 μL of Glo Lysis Buffer—GLB (Promega, Madison Wis.) equilibrated to room temperature was added to liver tissue. Liver tissues were homogenized with the FastPrep24 instrument (MP Biomedicals) at 2×6.0 m/s for 15 seconds. Homogenate was incubated at room temperature for 5 minutes prior to a 1:4 dilution in GLB and assessed using SteadyGlo Luciferase assay system (Promega). Specifically, 50 μL of diluted twassue homogenate was reacted with 50 μL of SteadyGlo substrate, shaken for 10 seconds followed by 5 minute incubation and then quantitated using a CentroXS^3 LB 960 luminometer (Berthold Technologies, Germany). The amount of protein assayed was determined by using the BCA protein assay kit (Pierce, Rockford, Ill.). Relative luminescence units (RLU) were then normalized to total g protein assayed. To convert RLU to ng luciferase a standard curve was generated with QuantiLum Recombinant Luciferase (Promega).
The FLuc mRNA (L-6107 or L-7602) from Trilink Biotechnologies will express a luciferase protein, originally isolated from the firefly, Photinus pyralwas. FLuc was commonly used in mammalian cell culture to measure both gene expression and cell viability. It emits bioluminescence in the presence of the substrate, luciferin. This capped and polyadenylated mRNA was fully substituted with 5-methylcytidine and pseudouridine.
Compounds of structure (I) were formulated using the following molar ratio: 47.5% cationic lipid/10% dwastearoylphosphatidylcholine (DSPC)/40.8% Cholesterol/1.7% PEG lipid (“PEG-DMA” 2-[2-(ω-methoxy(polyethyleneglycol2000)ethoxy]-N,N-ditetradecylacetamide). Relative activity was determined by measuring luciferase expression in the liver 4 hours following administration via tail vein injection as described in Example 1. […]
The cationic lipids shown in Table 2 have previously been tested with nucleic acids. For comparative purposes, these lipids were also used to formulate lipid nanoparticles containing the FLuc mRNA (L-6107) using an in line mixing method, as described in Example 1 and in PCT/US10/22614, which is hereby incorporated by reference in its entirety. Lipid nanoparticles may be formulated using the following molar ratio: 50% Cationic lipid/10% distearoylphosphatidylcholine (DSPC)/38.5% Cholesterol/1.5% PEG lipid (“PEG-DMG”, i.e., 1-(monomethoxy-polyethyleneglycol)-2,3-dimyristoylglycerol, with an average PEG molecular weight of 2000). In alternate embodiments, cationic lipid, DSPC, cholesterol and PEG-lipid are formulated at a molar ratio of approximately 47.5:10:40.8:1.7. […]

[3] = TNS fluorescence, pH giving half-maximal fluorescence intensity, values in text

Row | pKa [1, 3] | pKa ([1]; Table 3, TNS assay) | Structure (SMILES) | Liver Luc @ 0.5 mg/kg (ng luc/g liver) [2] [ng luc/g liver] | Liver Luc (ng luc/g liver), *dosed at 1.0 mg/kg [2] | Relative activity in the luciferase assay relative to MC3 [2]
1 | 8.04 | – | CCCCCCC(CCCC)COC(=O)CCCCCCCCC(CCCCCCCCC(=O)OCC(CCCC)CCCCCC)NCCCO (stereo not drawn) [Compound 11] | – | – | –
2 | – | 6.43 | CCCCCCC(CCCC)COC(=O)CCCCCCCCC(CCCCCCCCC(=O)OCC(CCCC)CCCCCC)N(C)CCCCO (stereo not drawn) [Compound 16] | 2004 ± 582 | – | –
3 | – | 6.31 | CCCCCCC(CCCC)C(=O)OCCCCCCCCCC(CCCCCCCCCOC(=O)C(CCCC)CCCCCC)N(C)CCCO (stereo not drawn) [Compound 19] | 216 ± 85 | – | –
4 | 6.49 | 6.37 | CCCCCCC(CCCC)COC(=O)CCCCCCCCC(CCCCCCCCC(=O)OCC(CCCC)CCCCCC)N(CCCCN(C)C)C(=O)C(CC)CCCC (stereo not drawn) [Compound 4] | – | 1213 ± 702* ng luc/g liver | –
5 | 6.53 | 6.38 | CCCCC(CC)COC(=O)CCCCCCCCC(CCCCCCCCC(=O)OCC(CC)CCCC)NCCCCC(=O)OCc1ccccc1 (stereo not drawn) [Compound 3] | – | 1370 ± 674* ng luc/g liver | 3.68
6 | – | 6.12 | CCCCCCCCC(CCCCCC)COC(=O)CCCCCC(CCCCCC(=O)OCC(CCCCCC)CCCCCCCC)N(CC)CCCCO (stereo not drawn) [Compound 15] | 345 ± 141 | – | –
7 | – | 6.03 | CCCCCCC(CCCC)COC(=O)CCCCCCCCC(CCCCCCCCC(=O)OCC(CCCC)CCCCCC)N(CC)CCCO (stereo not drawn) [Compound 13] | 514 ± 297 | – | –
8 | – | 5.83 | CCCCCCCCCN(CCCCC(=O)N(C)CCO)C(CCCCCCCCC(=O)OCC(CCCC)CCCCCC)CCCCCCCCC(=O)OCC(CCCC)CCCCCC (stereo not drawn) [Compound 7] | – | 33 ± 18* ng luc/g liver | –
9 | – | 6.29 | CCCCCCC(CCCC)COC(=O)CCCCCCCCC(CCCCCCCCC(=O)OCC(CCCC)CCCCCC)N(C)CCCO (stereo not drawn) [Compound 9] | – | 7628 ± 3298* ng luc/g liver | –
10 | – | 6.19 | CCCCCCC(CCCC)COC(=O)CCCCCCCCC(CCCCCCCCC(=O)OCC(CCCC)CCCCCC)N(CC)CCCCO (stereo not drawn) [Compound 14] | 238 ± 70 | – | –
11 | 4.74 | – | CCCCCCCCCN(CCCCC(=O)N(C)C)C(CCCCCCCCC(=O)OCC(CC)CCCC)CCCCCCCCC(=O)OCC(CC)CCCC (stereo not drawn) [Compound 2] | – | – | –
12 | 4.84 | – | CCCCCCCCCN(CCCO)C(CCCCCCCCC(=O)OCC(CCCC)CCCCCC)CCCCCCCCC(=O)OCC(CCCC)CCCCCC (stereo not drawn) [Compound 12] | – | – | –
13 | – | 6.25 | CCCCCCCCC(CCCCCC)COC(=O)CCCCCC(CCCCCC(=O)OCC(CCCCCC)CCCCCCCC)N(C)CCO (stereo not drawn) [Compound 20] | 92 ± 48 | – | –
14 | 6.69 | 6.69 | CCCCCCCCC(=O)N(CCCCN(C)C)C(CCCCCCCCC(=O)OCC(CCCC)CCCCCC)CCCCCCCCC(=O)OCC(CCCC)CCCCCC (stereo not drawn) [Compound 5] | – | 1422 ± 372* ng luc/g liver | 6.4
15 | – | 6.1 | CCCCCCCCCN(CCCCC(=O)NCCO)C(CCCCCCCCC(=O)OCC(CCCC)CCCCCC)CCCCCCCCC(=O)OCC(CCCC)CCCCCC (stereo not drawn) [Compound 6] | – | 318 ± 222* ng luc/g liver | –
16 | – | 6.39 | CCCCCCCCC(CCCCCC)COC(=O)CCCCCC(CCCCCC(=O)OCC(CCCCCC)CCCCCCCC)N(C)CCCO (stereo not drawn) [Compound 17] | 405 ± 227 | – | –
17 | 4.69 | – | CCCCCCCCCN(CCCN(C)C(C)=O)C(CCCCCCCCC(=O)OCC(CCCC)CCCCCC)CCCCCCCCC(=O)OCC(CCCC)CCCCCC (stereo not drawn) [Compound 1] | – | – | –
18 | – | 6.45 | CCCCCCCCC(CCCCCC)COC(=O)CCCCCC(CCCCCC(=O)OCC(CCCCCC)CCCCCCCC)N(C)CCCCO (stereo not drawn) [Compound 18] | 1506 ± 429 | – | –
19 | – | 6.09 | CCCCCCC(CCCC)COC(=O)CCCCCCCCC(CCCCCCCCC(=O)OCC(CCCC)CCCCCC)NCCCCC(=O)OCc1ccccc1 (stereo not drawn) [Compound 8] | – | 550 ± 164* ng luc/g liver | –
